US5248689A, “Substituted N-(imidazolyl)alkyl alanine derivatives” (SmithKline Beecham Corporation, priority 1990, dated 1993)
Like-named read-outs stand apart in the source and are kept apart here.

Tests used:
[1] = tested on: pressor response to angiotensin II; test: inhibition of pressor response to angiotensin II in conscious rats; format: in vivo; settings: Rattus norvegicus, intravenous angiotensin II 250 mg/kg [sic], read-out: IC50 (dose needed to produce 50% inhibition of the control response to angiotensin II)
Method: (§1) Angiotensin II antagonist activity of the compounds of Formulas (I) is assessed by in vitro and in vivo methods. In vitro antagonist activity is determined by the ability of the compounds to compete with ^125 I-angiotensin II for binding to vascular angiotensin II receptors and by their ability to antagonize the contractile response to angiotensin II in the isolated rabbit aorta. In vivo activity is evaluated by the efficacy of the compounds to inhibit the pressor response to exogenous angiotensin II in conscious rats and to lower blood pressure in a rat model of renin dependent hypertension.
Rats are prepared with indwelling femoral arterial and venous catheters and a stomach tube (Gellai et al., KidneyInt. 15:419, 1979). Two to three days following surgery the rats are placed in a restrainer and blood pressure is continuously monitored from the arterial catheter with a pressure transducer and recorded on a polygraph. The change in mean arterial pressure in response to intravenous injections of […] angiotensin II is compared at various time points prior to and following the administration of the compounds intravenously or orally at doses of 3 to 300 mg/kg. The dose of compound needed to produce 50% inhibition of the control response to angiotensin II IC50) is used to estimate the potency of the compounds.

[2] = tested on: conscious rats made renin dependent hypertensive by ligation of the left renal artery; test: antihypertensive activity in conscious renin dependent hypertensive (renal artery ligated) rats; format: in vivo; settings: Rattus norvegicus, 7-8 days after ligation, read-out: IC30 (dose needed to reduce mean arterial pressure by 30 mm Hg)
Method: as §1
The antihypertensive activity of the compounds is measured by their ability to reduce mean arterial pressure in conscious rats made renin dependent hypertensive by ligation of the left renal artery (Cangiano et al., J. Pharmacol. Exp. Ther. 208:310, 1979). Renal artery ligated rats are prepared with indwelling catheters as described above. Seven to eight days following renal artery ligation, the time at which plasma renin levels are highest, the conscious rats are placed in restrainers and mean arterial pressure is continuously recorded prior to and following the administration of the compounds intravenously or orally. The dose of compound needed to reduce mean arterial pressure by 30 mm Hg (IC30) is used as an estimate of potency. […]

For CCCCc1ncc(CN[C@@](C)(Cc2cccs2)C(=O)O)n1Cc1ccccc1Cl [Example 6, N-[{1-[(2-chlorophenyl)methyl]-2-n-butyl-1H-imidazol-5-yl}methyl]-α-methyl-β-(2-thienyl)alanine], the ED50 ([1]; i.v.) was 11 mg/kg, the ED50 ([1]; po, orally) was 45 mg/kg and the ED (30 mm Hg) ([2]; iv) was 15 mg/kg. The ED (30 mm Hg) ([2]; po, orally) was 70 mg/kg.
